Values quoted from earlier work, collected in PMC6243681 (Chemical Science, 2018).

stability in serum / to serum proteases: low stability
Sequence: THRPPMWSPVWP
